Assay results from patent publication US8916149B2, “Preventing and treating sepsis” (University of Rochester, priority 2008, dated 2014).

How the values were obtained:
β1 integrins = β1 integrins (Homo sapiens, UniProt P05556); conditions: cited from earlier work
septic mice = conditions: 'mid-grade' sepsis (CLP), 200 μg i.v. 12 hours before and after CLP
Experimental: (§1) 200 μg of the RGD peptide or PBS was given 12 hours before and after CLP via i.v. injection (n=20 per group). […] 200 μg of the RGD peptide or PBS was given via i.v. injection before receiving […] of LPS (i.p.) (n=10 per group). The statistical significance of mortality was determined by the Kaplan-Meyer log-rank test.
CLP was used to induce acute septic peritonitis as described (Rhee et al., J Surg Res 115:74 (2003)). Briefly, mice (C57BL/6, 6-8 weeks) were anesthetized using inhaled Isoflurane, a midline incision (approximately 1 cm) was made below the diaphragm, the cecum was […], ligated approximately […] distal and then punctured through and through with a 22-gauge needle. Cecum was gently squeezed to excise its contents. Sham animals underwent the same procedure with no ligation or puncture. The abdominal incision was then closed in layers with Ethilon 6.0 suture. Mice were resuscitated with 1.0 ml of Ringer's solution via subcutaneous injection. Animals recovered under a heat lamp for approximately 30 minutes and were allowed food and water ad lib.

β3 integrins = target: T1, β3 integrins (Homo sapiens, UniProt P05106); conditions: cited from earlier work
T1 sequence (P05106 27-788): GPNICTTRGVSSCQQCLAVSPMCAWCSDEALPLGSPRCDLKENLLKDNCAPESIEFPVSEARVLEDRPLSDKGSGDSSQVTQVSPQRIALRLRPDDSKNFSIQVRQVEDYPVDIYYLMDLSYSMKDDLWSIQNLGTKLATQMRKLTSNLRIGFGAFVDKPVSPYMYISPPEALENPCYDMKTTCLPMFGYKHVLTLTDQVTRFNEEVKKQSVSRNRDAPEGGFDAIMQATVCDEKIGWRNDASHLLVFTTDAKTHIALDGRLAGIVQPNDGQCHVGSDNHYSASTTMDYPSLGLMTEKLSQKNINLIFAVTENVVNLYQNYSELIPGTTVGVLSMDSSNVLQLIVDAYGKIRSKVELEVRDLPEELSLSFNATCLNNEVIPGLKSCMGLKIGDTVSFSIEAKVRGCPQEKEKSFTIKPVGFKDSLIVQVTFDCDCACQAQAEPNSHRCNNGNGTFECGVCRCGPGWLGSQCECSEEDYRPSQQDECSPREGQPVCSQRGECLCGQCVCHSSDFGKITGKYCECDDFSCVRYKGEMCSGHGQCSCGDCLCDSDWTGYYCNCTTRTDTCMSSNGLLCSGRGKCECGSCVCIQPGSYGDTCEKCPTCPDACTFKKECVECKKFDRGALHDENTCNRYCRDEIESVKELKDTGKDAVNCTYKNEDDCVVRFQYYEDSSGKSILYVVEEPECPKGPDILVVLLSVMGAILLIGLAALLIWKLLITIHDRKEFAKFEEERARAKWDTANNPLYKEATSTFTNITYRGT

[1] = test system: mice challenged with an LD90 of LPS; conditions: LPS at LD90, single dose 200 μg i.v.; control 90%
Experimental: as §1
In order to examine whether the RGD peptide alters mortality in ‘high-grade’ sepsis, 90% mortality was induced by endotoxemia.

human neutrophils = test: Neutrophil adhesion assay on immobilized fibronectin (FN); assay type: cell-based; conditions: 10 μg/ml protein
Experimental: The adhesion assay was carried out essentially as described (Vorup-Jensen et al., PNAS 102:1614 (2005)). Cover slips were coated with FN in coating buffer (150 mM NaCl/20 mM Tris.HCl, pH 9.0) for over night at 4° C. and for 4 hours at room temperature. Residual binding sites were blocked by incubation of the wells with 0.05% (wt/vol) polyvinylpyrrolidone in PBS for 30 minutes at room temperature. […] The cover slips were aspirated, and washed with L15 medium. […] Cells (250 μl) were then immediately added, and further incubated at 37° C. for 15 minutes. Unbound cells were then washed with warm L15 medium. The bound cells were then fixed with formaldehyde. For each experimental condition from three independent donors, five random phase-contrast images were obtained, and the number of cells in each well was scored from printed micrographs.

hEPCR-mCFP and β1-mYFP = target: T2, hEPCR-mCFP and β1-mYFP (Homo sapiens, UniProt P05556+Q9UNN8); test: Dynamic FRET (TIRF) between hEPCR-mCFP and β1-mYFP in HEK293 cells; assay type: cell-based
T2 construct: expressed in transfected cells; host or cells: HEK293
T2 sequence (Q9UNN8 18-238): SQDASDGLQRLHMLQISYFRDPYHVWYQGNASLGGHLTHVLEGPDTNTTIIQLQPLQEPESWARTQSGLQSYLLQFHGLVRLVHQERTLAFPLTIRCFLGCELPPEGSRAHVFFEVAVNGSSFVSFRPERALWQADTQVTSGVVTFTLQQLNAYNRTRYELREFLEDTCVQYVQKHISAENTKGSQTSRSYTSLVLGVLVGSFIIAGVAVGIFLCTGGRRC
T2 sequence (P05556 21-798): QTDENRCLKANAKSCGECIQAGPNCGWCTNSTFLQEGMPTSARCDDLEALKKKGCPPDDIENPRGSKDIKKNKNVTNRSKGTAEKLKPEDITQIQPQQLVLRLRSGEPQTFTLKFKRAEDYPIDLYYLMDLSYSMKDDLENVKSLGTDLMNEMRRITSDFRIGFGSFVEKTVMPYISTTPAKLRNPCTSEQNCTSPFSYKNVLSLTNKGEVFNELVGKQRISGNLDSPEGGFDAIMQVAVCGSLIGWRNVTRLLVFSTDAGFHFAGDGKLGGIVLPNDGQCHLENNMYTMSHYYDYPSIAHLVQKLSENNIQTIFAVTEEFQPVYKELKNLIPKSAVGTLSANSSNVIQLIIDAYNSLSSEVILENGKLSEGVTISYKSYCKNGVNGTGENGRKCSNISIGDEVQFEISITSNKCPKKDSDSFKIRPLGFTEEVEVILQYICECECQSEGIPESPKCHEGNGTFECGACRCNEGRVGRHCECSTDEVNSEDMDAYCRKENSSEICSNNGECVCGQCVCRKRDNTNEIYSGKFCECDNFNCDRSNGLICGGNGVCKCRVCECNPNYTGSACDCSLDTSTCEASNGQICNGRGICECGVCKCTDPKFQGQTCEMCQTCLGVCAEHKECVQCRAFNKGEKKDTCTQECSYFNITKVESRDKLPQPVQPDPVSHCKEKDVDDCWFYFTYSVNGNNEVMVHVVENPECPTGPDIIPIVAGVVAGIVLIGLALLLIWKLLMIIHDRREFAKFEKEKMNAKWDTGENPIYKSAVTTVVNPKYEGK
Experimental: Dynamic FRET imaging was carried out using a Nikon Eclipse TE2000-U microscope (Nikon, Melville, N.Y.) equipped with a Dual-View (Optical Insights, Tucson, Ariz.) and CFP/YFP dual-band filter set (Chroma, Rockingham, Vt.). TIRF imaging was performed with a white light TIRF aperture diaphragm and a 100×TIRF 1.49 NA oil immersion objective coupled to a QuantEM EMCCD (Roper Scientific, Tucson, Ariz.). The microscope was controlled by NIS element software (Nikon, Melville, N.Y.) and data analysis was performed with AutoDeblur (Autoquant Imaging, Troy, N.Y.) by the sensitized emission method (Gordon et al., Biophys. J. 74:2702 (1998)). 48 hours after co-transfection with hEPCR-mCFP and β1-mYFP DNA construct in Delta T dish (Fisher Scientific, Pittsburgh, Pa.), HEK293 cells were washed with PBS and then 1 ml L15 medium supplemented with 2 mg/ml D-glucose. Cells were equilibrated for about 10 minutes at 37° C. in a FCS2 live cell imaging chamber (Bioptechs, Butler, Pa.). […]
Therefore, it was tested whether the anti-EPCR antibody relieved the rhAPC-induced inhibition of neutrophil adhesion on FN. […] Since the ligand will only bind to cell surface receptors, optical measurements were confined to the plasma membrane using through the objective total internal reflection fluorescence (TIRF).

[2] = test system: β1 and β3 integrin expressing HEK293T cells; test: Yeast surface display binding of mutant APCs on HEK293 cells; design: species or system human
Description: A broad-range of hosts and scaffolds based on ribosome display, phage display, and cell-surface display are used widely as systems to implement directed evolution (Hoogenboom, Nat. Biotechnol. 23:1105 (2005)). Among the cell surface display systems based on microbial and eukaryotic hosts, the yeast system offers the unique advantage of eukaryotic machinery that enables post-translational modification, glycosylation, and disulfide isomerization (Wittrup, Curr. Opin. Biotechnol. 12:392 (2001)). […] The yeast display system that was used employs the α-agglutinin yeast adhesion receptor to display recombinant proteins on cell surface of S. cerevisiae. The receptor consists of two proteins, Aga1 and Aga2 (FIG. 6). Aga1 is secreted and becomes covalently attached to β-glucan in the extracellular matrix of the yeast cell wall. Aga2 binds to Aga1 through two disulfide bonds, making it possible to express a protein of interest fused to Aga2.
Mixtures of 1 μg cDNA library and 0.5 μg of the Nhe1/BamH1 linearized pCTCON vector in 5 μl were transformed into 10^8 yeast cells by electroporation, which lead to ˜10^6 diversity in the library. Inside the cells, the cDNA library was recombined into the vector by the endogenous Gap repair protein. The yeast library of the human protein C was activated by thrombin. […]

Chain of β1 integrins (P05556 21-798): as above

acetyl-c[(penicillamine)-O-methyltyrosine-ARGDN(tetrahydroisoquinoline-3-carboxylic acid)C]—NH2 [RGD peptide]
affinity to β1 integrins (β1 integrins): high affinity | 7-day mortality (septic mice): no significant change | time of survival (septic mice): reproducibly prolonged | affinity to β3 integrins (β3 integrins): high affinity | mortality [1]: 60%

B1: Gla-less APC: mutant form of APC that lacks the EPCR binding motif (Enzyme Research Lab.) (protein)
chain: SKHVDGDQCLVLPLEHPCASLCCGHGTCIDGIGSFSCDCRSGWEGRFCQREVSFLNCSLDNGGCTHYCLEEVGWRRCSCAPGYKLGDDLLQCHPAVKFPCGRPWKRMEKKRSHLLIDGKMTRRGDSPWQVVLLDSKKKLACGAVLIHPSWVLTAAHCMDESKKLLVRLGEYDLRRWEKWELDLDIKEVFVHPNYSKSTTDNDIALLHLAQPATLSQTIVPICLPDSGLAERELNQAGQETLVTGWGYHSSREKEAKRNRTFVLNFIKIPVVPHNECSEVMSNMVSENMLCAGILGDRQDACEGDSGGPMVASFHGTWFLVGLVSWGEGCGLLHNYGVYTKVSRYLDWIHGHIRDKEAPQKSWAP
fMLP-induced adhesion of human neutrophils to immobilized FN (human neutrophils): inhibited adhesion to a slightly less, but similar, degree as the wild type protein | FRET efficiency between EPCR-mCFP and β1-mYFP (hEPCR-mCFP and β1-mYFP): No obvious FRET change

B2: KR146/147GG+R177G: APC with combined substitutions K146G, R147G and R177G (protein)
chain: ANSFLEELRHSSLERECIEEICDFEEAKEIFQNVDDTLAFWSKHVDGDQCLVLPLEHPCASLCCGHGTCIDGIGSFSCDCRSGWEGRFCQREVSFLNCSLDNGGCTHYCLEEVGWRRCSCAPGYKLGDDLLQCHPAVKFPCGRPWGGMEKKRSHLKRDTEDQEDQVDPRLIDGKMTGRGDSPWQVVLLDSKKKLACGAVLIHPSWVLTAAHCMDESKKLLVRLGEYDLRRWEKWELDLDIKEVFVHPNYSKSTTDNDIALLHLAQPATLSQTIVPICLPDSGLAERELNQAGQETLVTGWGYHSSREKEAKRNRTFVLNFIKIPVVPHNECSEVMSNMVSENMLCAGILGDRQDACEGDSGGPMVASFHGTWFLVGLVSWGEGCGLLHNYGVYTKVSRYLDWIHGHIRDKEAPQKSWAP
binding of yeast expressing mutant APC on HEK293 cells compared to WT APC [2]: further enhanced
